The nature of series [1]: MTT cell viability assay (cytotoxicity), bEnd3. Conditions: mouse, bEnd3 brain endothelial cells, 1–500 µM. It is filed as cell-based, mouse. The method, then: Mouse-brain endothelial cell line bEnd3 [36] (CRL-2299) was purchased from the American Type Culture Collection (ATCC, Manassas, VA, USA). The cells were cultured in DMEM (Dulbeco’s modified essential medium) (cat. no. 30-2002, ATCC, Manassas, VA, USA), supplemented with 10% heat-inactivated FBS (cat. no. F7524, Sigma-Aldrich Co. LLC, St. Louis, MO, USA), 1 mM L-glutamine (cat. no. G7513, Sigma-Aldrich Co. LLC, St. Louis, MO, USA) and 1× Antibiotic-Antimycotic solution (penicillin: streptomycin: amphotericin B (100 U/mL: 0.10 mg/mL: 0.25 µg/mL) (cat. no. A5955, Sigma-Aldrich Co. LLC, St. Louis, MO, USA) at 37 °C in a humidified atmosphere containing 5% CO2. The cells were passaged in 75 cm^2 flasks every 3–5 days via trypsinization (StableCell Trypsin solution, cat. no. T2610, Sigma-Aldrich Co. LLC, St. Louis, MO, USA).
(§1) Cell viability was assessed via the mitochondrial reductase-dependent reaction of (3-(4,5-dimethylthiazol-2-yl)- 2,5-diphenyl tetrazolium bromide (MTT, cat. no. 475989, Calbiochem, Merck KGaA, Darmstadt, Germany). The SH-SY5Y and bEnd3 cell lines were seeded in 96-well plates at a density of 0.7 × 10^4 (bEnd3) or 2 × 10^4 (SH-SY5Y) cells/well and allowed to adhere for 24 h at 37 °C, 5% CO2. Then, the cells were incubated with the compounds (1–500 μM) for a preset time (24 h). For the solvent, the control cells were treated with DMSO corresponding to the highest concentration of DMSO in the samples (0.5% DMSO) in order to exclude its cytotoxic effect on the cells. For each concentration, a set of at least 6 wells were used. After incubation, the solution from each well was exchanged with fresh culture medium (100 µL/well), containing the MTT reagent (0.5 mg/mL) and incubated for 3 h at 37 °C in a humidified atmosphere and 5% CO2. The obtained formazan crystals were dissolved in 100 µL/well of 5% formic acid in propan-2-ol solution (or DMSO). The absorbance was measured at 570 nm via multiplate reader Tecan Infinite F200 PRO (Tecan Trading AG., Männedorf, Switzerland) or Synergy 2 (BioTek Instruments, Inc., Highland Park, Winooski, VT, USA).
(§2) Both the SH-SY5Y and bEnd3 cells were treated with the test compounds in a concentration range from 1 to 500 µM for 24 h.

Series [2] in a line: Superoxide radical scavenging, xanthine/xanthine oxidase/NBT system. It is filed as biochemical. As for the experimental part: The 1 mL cuvette for the control contained 1 mM xanthine, 20 µL xanthine oxidase (100 IU/L), and 0.04 mM NBT [43, 44]. In the sample compositions, the tested hydrazones at different concentrations were added. All measurement compositions were incubated at 37 °C, and the absorbance was determined spectrophotometrically at 560 nm via Shimadzu UV-1601 UV-vis spectrophotometer.
The potential capability of the investigated compounds to prevent the superoxide-anion radical-induced NBT reduction was investigated spectrophotometrically by xanthine-oxidase assay. The assay was carried out at the final concentration of the tested compounds, at 1, 10, 50, and 100 µM.

Series [3] relates to isolated rat-brain synaptosomes. The series can be described thus: 6-OHDA-induced neurotoxicity in isolated rat synaptosomes, synaptosomal viability. Format: cell-based. The note with it: Rattus norvegicus; 10 µM pre-incubation 30 min, then 150 µM 6-OHDA 1 h; read-out: synaptosomal viability (SV) preserved, as compared to 6-OHDA. The method, then: (§3) This neurotoxicity model was based on the metabolism and auto-oxidation of 6-hydroxy dopamine responsible for the reactive oxygen species and quinones generation, ultimately leading to neurotoxicity and neurodegeneration. The experiment was performed by pre-incubation of the synaptosomes with 10 µM of the compounds for 30 min, followed by the addition of 150 µM 6-hydroxy dopamine for induction of neurotoxicity. After 1 h, they were centrifuged twice for 1 min at 15,000 × g. After the second wash, the precipitates were resolved with buffer B and glucose.

Series [4] in a line: MTT cell viability assay (cytotoxicity), SH-SY5Y. The note with it: human, SH-SY5Y neuroblastoma cells. The method, then:
Neuroblastoma cell line SH-SY5Y (94030304) was acquired from the European Collection of Cell Cultures (ECACC, Salisbury, UK). Cells were cultured in a medium prepared with RPMI basic media supplemented with 10% heat-inactivated FBS (fetal bovine serum), 2 mM L-glutamine, 1% antibiotics (penicillin/streptomycin), and incubated at 37 °C in a humidified atmosphere containing 5% of CO2. The culture’s medium was replaced at a time interval of 2–3 days.
as §1, §2

Series [5] in a line: Fe(II)-induced lipid peroxidation assay (LP assay, TBARS). It is filed as biochemical. The note with it: 90 µM, lecithin 1 mg/mL, 0.1 mM FeCl2; lower = stronger antioxidant. The method, then: (§4) The lipid peroxidation assay and a modification of the deoxyribose-degradation assay were used. Two types of measurement compositions in phosphate buffer (PB–K2HPO4/KH2PO4, pH 7.4) were prepared for both tests: (i) samples, containing the biologically relevant molecules (lecithin emulsion or deoxyribose), iron, and the tested hydrazones at the concentrations indicated below the figures; and (ii) controls, in which the tested hydrazones were omitted. The data for the sample activity were presented as a percentage of the control measurement.
The thiobarbituric-acid reactive-substance colorimetric test was performed in a model system of Fe(II)-induced lipid peroxidation as an emulsion prepared from egg yolk phospholipids. Each sample contained 1 mg/mL of lecithin. LP was initiated using 0.1 mM FeCl2. After 30 min incubation at 37 °C, 0.5 mL of 2.8% trichloroacetic acid solution and 0.5 mL of 0.5% thiobarbituric acid solution were added, following a second incubation at 100 °C for 20 min. Centrifugation at 3000 rpm for 20 min at 4 °C was performed, and we determined the absorbance value of the supernatant at 532 nm via Shimadzu UV-1601 UV-VIS spectrophotometer.

Series [6] can be described thus: O-phenanthroline Fe(II) chelation test. It is filed as physicochemical. The note with it: 200 µM compound, FeCl2. As for the experimental part: The Fe (II)-chelating activity of the tested hydrazones was determined by the O-phenanthroline method. A total of 1 mL sample solutions of 50 mM PB pH 7 contained 0.2 mM O-phenanthroline and 0.05 mM FeCl2 and 0.2 mM hydrazone. In the controls, the tested compounds were omitted. Absorbance was measured at 515 nm via GENESYS 50 UV-VIS spectrophotometer after incubation for 5 min at 37 °C. The data for the sample activity were presented as a percentage of the control measurement. Absorbance spectra of all the samples, the control, and the measurement compositions containing the tested hydrazones and Fe(II) at the concentrations used in the samples were measured.
To explain the results of both systems of Fe(II)-induced oxidative damage, we studied the potency of the tested compounds to chelate-iron (Fe(II)). This was studied by spectrophotometric determination of free iron (Fe(II)) using the ortho-phenanthroline test, as 1,10-phenantroline reacts rapidly with Fe(II) ions in weakly acidic media, generating an orange–red complex (ferroin) with characteristic absorbance spectra (molar absorptivity 1.10.104 (α = 0.20) at ~max 512 nm and a molar ratio 3:1 (R: Fe(II))). The generated complex was stable, and the bound Fe(II) was resistant to oxidation. Lower absorbance of the reaction mixture indicated higher Fe^2+-chelating activity.

A short description of series [7]: Fe(II)-induced deoxyribose degradation assay. It is filed as biochemical. Conditions: 80 µM, 2-deoxyribose 0.5 mM, 0.1 mM FeCl2; lower = stronger antioxidant. As for the experimental part: as §4
The deoxyribose (0.5 mM) damage was induced by adding FeCl2 (0.1 mM). The measurement compositions were incubated at 37 °C for 30 min. The next step comprised adding 0.5 mL of 2.8% trichloroacetic acid and 0.5 mL of thiobarbituric acid. Then, the samples were heated in boiling water for 20 min, and their absorbance was estimated at 532 nm (characteristic band for the generated chromophore) via Shimadzu UV-1601 UV-vis spectrophotometer.

Series [8] has as its system isolated rat-brain synaptosomes. Description: Level of reduced glutathione (GSH) in isolated synaptosomes, substances administered alone. The method, then: (§5) Preparation of the synaptosomes was carried out by multiple centrifugations using the Percoll gradient. Homogenization of the brains was performed in 10 volumes of cold buffer 1, which contained 5 mM HEPES and 0.32 M sucrose (pH = 7.4), followed by centrifugation at different speeds. For preparation of the gradient, the synaptosomes were isolated by Percoll reagent. Synaptosomes were resuspended and incubated in buffer 2, which contained 290 mM NaCl, 0.95 mM MgCl2x6H2O, 10 mM KCl, 2.4 mM CaCl2xH2O, 2.1 mM NaH2PO4, 44 mM HEPES, and 13 mM D-glucose. Incubations were performed in a 5% CO2 + 95% O2 atmosphere. The method of Lowry et al., using bovine serum albumin as a standard content, was applied for determination of synaptosomal protein [51].
After the treatment with the tested compounds, the glutathione levels of the synaptosomes were determined with an Ellman reagent (DTNB). The GSH levels were evaluated based on the synaptosomal sediment, precipitated with 5% TCA, and centrifuged for 10 min at 4000× g. GSH levels in the supernatant were measured spectrophotometrically at 412 nm by a Spectro UV-vis split spectrophotometer (LaboMed. Inc., Los Angelis, California, USA). […]

For series [9] the test system is unchanged. Description: Synaptosomal viability (MTT), substances administered alone. The method, then:
as §5
Synaptosomal viability was monitored based on a (3-(4,5)-dimethylthiazol-2-yl)-2,5-diphenyl tetrazolium bromide) assay. After incubation with the compounds, synaptosomes were treated with 0.5 mg/mL solution of (3-(4,5)-dimethylthiazol-2-yl)-2,5-diphenyl tetrazolium bromide) for 10 min at […]. Then, the synaptosomes were centrifuged twice at 15,000× g for 1 min. The resulting formazan crystals were dissolved in DMSO (dimethyl sulfoxide), and the extinction was determined by spectrophotometric measurements at 580–660 nm. […]

The subject of series [10] is SH-SY5Y cells. The series can be described thus: H2O2-induced oxidative stress model in SH-SY5Y cells. Format: cell-based, human. The note with it: H2O2 1 mM 15 min. As for the experimental part:
The SH-SY5Y cells were seeded in 96-well plates at a density of 3.5 × 10^4/well in 100 μL of RPMI supplemented with FBS for 24 h. Then, the cell medium was aspirated, and the cells were treated with different concentrations of the compounds—1, 10, and 50 µM for 90 min. Afterwards, the SH-SY5Y cells were washed with PBS and were exposed to hydrogen peroxide (H2O2) (1 mM in PBS for 15 min) to induce oxidative stress. All well contents were replaced by fresh culture medium and incubated for 24 h. MTT assay was used to evaluate the amount of attached viable cells. Negative controls (cells without H2O2 treatment) were considered as 100% protection and H2O2-treated cells as 0% protection.
To evaluate the possible neuroprotective effects of the compounds, the SH-SY5Y cells were pre-treated with different concentrations (1, 10, 50 µM) for 90 min and then exposed to H2O2 (1 mM) for 15 min. The cell viability of all compounds was measured to verify their protective effect against the toxicity of hydrogen peroxide.

Series [11] has as its system isolated rat-brain synaptosomes. The series can be described thus: 6-OHDA-induced neurotoxicity in isolated rat synaptosomes, GSH level. Format: cell-based. Conditions: 10 µM pre-incubation 30 min, then 150 µM 6-OHDA 1 h. The method, then:
as §3

The IC50 is the concentration needed to halve the response being measured. A word on the viability: it is the share of living cells, or the viability signal relative to a control. A word on the melting point: it is the temperature of the solid-liquid transition.

Counter-ions that a name gives are not always drawn.

Consider `O=C(CCc1c[nH]c2ccccc12)NN=Cc1ccc(O)c(O)c1` [Compound 3b, N′-(3,4-Dihydroxybenzylidene)-3-(1H-indol-3-yl)propanehydrazide], for which the IC50 at 24 h in [1] stood at 352 µM; in [4] it was 265 µM. The “decrease of NBT reduction as compared to the controls” value in series [2] (100 µM (highest tested concentration)) was “more than 40%”. Also, the viability at 10 µM in series [3] is 33%. Besides, the “absorbance ratio sample/control (lipid peroxidation)” value (“absorbance ratio sample/control” below) in [5] is “below 65%”. In series [6], the “absorbance at 515 nm compared to the controls (Fe(II) chelation)” value was “statistically identical absorbance values at 515 nm, as compared to the controls”.
`O=C(CCc1c[nH]c2ccccc12)NN=Cc1ccc(O)cc1O` [Compound 3c, N′-(2,4-Dihydroxybenzylidene)-3-(1H-indol-3-yl)propanehydrazide]: the melting point was in the range of 239 to 240 °C. The 50% inhibitory concentration (IC50) at 24 h in series [1] is over 500 µM. Besides, the “absorbance ratio (NBT reduction, % of control)” value in series [2] (1, 10, 50 and 100 µM) is “did not influence the estimated absorbance ratio at any of the tested concentrations”. In addition, the “absorbance ratio, % of the controls (deoxyribose degradation)” value in [7] is “did not induce a modulating effect”. Further, the viability at 10 µM in series [3] was 33%. Moreover, the IC50 at 24 h in [4] amounted to 275 µM. Also, the “absorbance ratio sample/control” value in series [5] is listed as “below 65%”. Besides, in series [6], the “absorbance at 515 nm compared to the controls (Fe(II) chelation)” value was “statistically identical absorbance values at 515 nm, as compared to the controls”.
For the compound `NCCc1cc(O)c(O)cc1O` [Compound 6-OHDA, 6-hydroxydopamine], the “decrease of GSH level vs. non-treated synaptosomes” value in series [8] (150 µM) is on record as 50%. Further, the “decrease of synaptosomal viability (SV) vs. non-treated synaptosomes” value in series [9] (150 µM) worked out at 55%.
`C#CCN[C@@H]1CCc2ccccc21` [Rasagiline.HCl, Rasagiline]: the “reduction of GSH level vs. non-treated synaptosomes” value in [8] (100 µM) is listed as “did not decrease”. Also, in [3], the viability at 10 µM came to 67%. Moreover, the IC50 at 24 h in series [4] was over 500 µM. For the same compound, the “protective effect: increased cell viability of SH-SY5Y vs. H2O2 group” value in series [10] (10 µM pre-treatment 90 min) amounted to 40%; in [10] (50 µM pre-treatment 90 min), 46%. Also, the “GSH level preserved, as compared to 6-OHDA” value in [11] came out at 80%. Further, the “reduction of synaptosomal viability (SV) vs. non-treated synaptosomes” value in series [9] (100 µM) amounted to 25%.
Consider `O=c1c(O)c(-c2ccc(O)c(O)c2)oc2cc(O)cc(O)c12` [quercetin, reference compound], for which, in [7], the “absorbance ratio, % of the controls (deoxyribose degradation)” value is reported as “about 50%”. In addition, the “absorbance ratio sample/control” value in series [5] is recorded as 23%.

Values taken from article PMC10135567, “New Indole-3-Propionic Acid and 5-Methoxy-Indole Carboxylic Acid Derived Hydrazone Hybrids as Multifunctional Neuroprotectors” (Antioxidants, 2023).
